The values below come from patent EP2662079A1 (Ordway Research Institute, Inc., priority 2012, dated 2013).

The structures appear in SMILES notation.

One assay has as its system MDA-MB-231 cells. Put plainly: RNA microarray of MDA-MB-231 cells. Format: cell-based, human. The protocol: Tetrac and nanoparticulate Tetrac. Tetrac was custom-synthesized by Peptido GMBH (Bembach, Germany). The proprietary Tetrac nanoparticle was custom-synthesized by covalently-bonding of the outer ring hydroxyl of Tetrac to PLGA via an intervening linker. […] Cell culture for definition of effects of Tetrac formulations on tumor cell proliferation. MDA-MB-231 cells were purchased from ATCC (Manassas, VA). Cells were maintained until use in DMEM that contained 10% FBS. The incubator conditions were 5% CO2/95% 02 and 37° C. The action of unmodified Tetrac and nanoparticulate on MDA-MB-231 cells was determined in a perfusion bellows cell culture system we have recently described for quantitating pharmaceutical agent pharmacodynamics in vitro. (See Lin et al., J Steroid Biochem Mol Biol 113: 182-188 (2009)). In brief, the cell culture system is a disposable bioreactor capable of high density cell culture for studies of anti-cancer drugs. Bellows-induced alternate flow of culture medium and air through porous matrices where cells are grown provides a relatively low shear, high aeration, foam-free culture environment. Medium level is raised and lowered to submerge and expose matrices to create a dynamic interface between air and media on the cell surface. Anchorage-dependent cells are grown on plastic flakes in the system. The flakes facilitate harvesting of whole cells for analysis. In the present studies, 5 x 10^7 cells were seeded in each perfusion flask and incubated at 37 C overnight. Flakes thereafter were sampled at regular intervals (Figure 44), subjected to trypsinization and the harvested cells counted. When Tetrac or nanoparticulate Tetrac were initially added to the system, flasks contained 20-50 x 10^6 cells. Cell cultures were re-fed with 1% FBS-containing medium. Studies were carried out in duplicate flasks and replicated once. Cell culture for harvesting of RNA. MDA-MB-231 cells were maintained in DMEM that was supplemented with 10% FBS in a 5% CO2/95% 02 air incubator at 37°C. For two days prior to exposure to Tetrac and nanoparticulate Tetrac, cells were maintained in 0.25% FBS that was stripped of estrogen and thyroid hormone. (See Lin et al., Biochemistry 42: 7571-7579 (2003)). RNA microarray and analysis. Microarray analysis experiments were conducted as described previously. (See Glinsky et al., J Clin Invest 115: 1503-1521 (2005); Glinsky et al., J Clin Invest 113: 913-923 (2004); Glinsky et al., Clin Cancer Res 10: 2272-2283 (2004); and Glinsky et al., Mol Carcinog 37: 209-221 (2003)). In brief, the array hybridization and processing, retrieval of data and analysis utilized standard sets of Affymetrix (Santa Clara, CA) equipment, software and protocols in the microarray core facility of Ordway Research Institute. […] Sample purity and integrity were verified with an Agilent BioAnalyzer (Santa Clara, CA). Expression analysis of 54,675 transcripts for each sample was by Affymetrix HG-U133A Plus 2.0 arrays. MAS5.0 software was used for data retrieval and analysis and concordant changes of gene expression in response to unmodified Tetrac and nanoparticulate Tetrac were defined by two-tailed t test at a threshold p value < 0.01.
Expression of ~54,000 transcripts was analyzed in control and drug-treated cultures, using Affymetrix Human Genome U133 plus 2.0 microarrays. Subsequent analysis was focused on genes affected by treatment at p < 0.01. There was 93% concordance between Tetrac and Tetrac NP in terms of genes affected; notable disparities included downregulation of epidermal growth factor receptor (EGFR) by Tetrac NP and no affect of unmodified Tetrac on this gene.

The next assay has as its system Matrigel plugs. Briefly: Mouse Matrigel model of angiogenesis (plug hemoglobin). Format: in vivo, mice (C57BL/6NCr). How it is done:
Normal male mice (C57BL/6NCr) 6-8 weeks of age and weighing ~20 g were purchased from Taconic farm. Animals were housed 4 per cage, in controlled conditions of temperature (20-24 °C); humidity (60-70%) and 12 hrs. light/dark cycle provided with food and water ad libitum. […] Matrigel (BD Bioscience, San Jose CA) was thawed overnight at 4 °C and placed on ice. Aliquots of matrigel were placed into cold polypropylene tubes to prevent the matrigel from solidifying and the angiogenesis promoter added to matrigel with or without agonist. Mice were treated daily. Matrigel was subcutaneously injected as triple injection per animal at 100 µL/animal. At day 14 post plug implant all animals were killed in CO2 chamber and matrigel plugs were collected. […]
The matrigel plugs dissected from the mice were carefully stripped of any remaining peritoneum. The plugs were placed into 0.5 mL tube of ddH2O and homogenized for 5-10 min. […] Absorbance was read with a Microplate Manager ELISA reader at 540 nm. […] Hemoglobin concentration is a reflection of the number of blood vessels in the plugs.

A further assay relates to MCF7/R cells. Briefly: Growth of doxorubicin-resistant tumors in nude mice. Format: in vivo. The following applies: Tetrac 30 mg/kg (Figure 17).
Another assay has as its system GL261 cells. Put plainly: Cell multiplicity after Tetrac exposure. Format: cell-based, murine. The following applies: after one hour exposure to Tetrac. The protocol: Cell multiplicity (CM) was determined from Giemsa stained slides by counting the number of cells per microcolony under 20 X magnification. At least 400 microcolonies were counted.
The length of time that Tetrac biologically affected GL261 cells was also determined. To do this, the multiplicity relationship defined above was utilized. Tetrac was added to cells one hour prior to the determination of the multiplicity. After the exposure of exponentially growing GL261 cells to Tetrac, the Tetrac containing medium was removed from GL261 cells, which contained an unknown residual and fresh medium (without Tetrac) was added. As a function of time (i.e., 0, 1, 2, 3, 4, 6, 8, and 10 hours, and 1-6 days), the cells, containing an unknown residual amount of remaining Tetrac, were then processed for determination of the multiplicity index (i.e. the number of cells per microcolony).

Where [1] appears, read: gene expression, listed as unmodified Tetrac.

Consider `O=C(O)Cc1cc(I)c(Oc2cc(I)c(O)c(I)c2)c(I)c1` [Tetrac, 3,3',5,5'-tetraiodothyroacetic acid], for which the “expression of epidermal growth factor receptor (EGFR)” value in the assay with MDA-MB-231 cells (10^-7 M, 24 h) was “no affect”. In the assay on MDA-MB-231 cells (gene expression), the “Change: CBY1” value is listed as “significantly increased”, the “Change: CDKN2C (Cyclin-dependent kinase inhibitor)” value is on record as “↑”, the “Change: Cyclins (Cell cycle regulators)” value is listed as “↓” and the “Change: THBS1” value is listed as “strongly induced”. In addition, in the assay with MDA-MB-231 cells (setting [1]), the “Change: BCL2L14” value is given as “not a significant stimulatory action”, the “Change: CASP2” value is recorded as “not a significant stimulatory action”, the “Change: MCL1” value is “did not significantly affect” and the “Change: XIAP” value is given as “also acted on XIAP”. Also, the “Hemoglobin (mg/mL)± SEM” value in the assay with Matrigel plugs (FGF 100 ng + compound 10 µg/plug, n= 7-14) stood at 0.5 ± 0.1 mg/mL. In the assay on Matrigel plugs (FGF-induced angiogenesis, 10 µg/plug), the “Mean inhibition of angiogenesis (%)” value amounted to 85%. Moreover, the “Hemoglobin (mg/mL)± SEM” value in the assay with Matrigel plugs (T4 + antagonist, each 10 µg/matrigcl plug) came to 0.4 ± 0.1 mg/mL. The “growth of drug resistant tumors in nude mice” value with MCF7/R cells is “effective in suppressing the growth”. In the assay with GL261 cells, the “time for a 50% return of the cell multiplicity factor towards control level” value is listed as “approximately 2.5 days” and the “time post Tetrac treatment at which decrease in the CM factor was recorded at 50%” value came to 60 h.
